According to ChEMBL document CHEMBL1944621, “Design, synthesis, and biological evaluation of novel (1-thioxo-1,2,3,4-tetrahydro-β-carbolin-9-yl)acetic acids as selective inhibitors for AKR1B1” (Bioorg Med Chem, 2012):

Legend:
[1] = biological target: T1, Aldo-keto reductase family 1 member A1 (Homo sapiens, UniProt P14550); assay: Inhibition of human recombinant AKR1A1 expressed in Escherichia coli BL21 cells using D-glucuronate as substrate by spectrophotometry
T1 sequence (P14550 whole entry): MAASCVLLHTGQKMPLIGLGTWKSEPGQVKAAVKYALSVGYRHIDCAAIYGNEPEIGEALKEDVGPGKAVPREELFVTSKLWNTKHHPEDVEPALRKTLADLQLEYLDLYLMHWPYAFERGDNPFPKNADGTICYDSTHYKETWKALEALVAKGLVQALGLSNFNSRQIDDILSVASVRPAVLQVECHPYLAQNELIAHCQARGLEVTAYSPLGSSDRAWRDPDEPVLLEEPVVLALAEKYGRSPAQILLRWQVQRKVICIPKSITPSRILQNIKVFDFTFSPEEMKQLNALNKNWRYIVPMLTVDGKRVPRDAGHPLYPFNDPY

[2] = biological target: Aldo-keto reductase family 1 member B10 (Homo sapiens, UniProt O60218); assay: Inhibition of recombinant N-His6-tagged AKR1B10 expressed in Escherichia coli BL21 cells using pyridine-3-aldehyde as substrate by spectrophotometry
Aldo-keto reductase family 1 member B10, sequence (O60218 whole entry): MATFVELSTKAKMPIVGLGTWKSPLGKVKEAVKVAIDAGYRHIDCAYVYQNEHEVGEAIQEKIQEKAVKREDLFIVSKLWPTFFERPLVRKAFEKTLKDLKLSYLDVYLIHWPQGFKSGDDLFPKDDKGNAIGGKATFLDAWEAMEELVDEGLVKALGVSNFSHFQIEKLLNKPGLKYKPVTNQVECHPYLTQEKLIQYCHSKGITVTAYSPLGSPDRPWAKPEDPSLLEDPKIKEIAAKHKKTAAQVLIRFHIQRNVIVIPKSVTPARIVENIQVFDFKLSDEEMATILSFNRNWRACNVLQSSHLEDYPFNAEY

[3] = biological target: T2, Aldo-keto reductase family 1 member B1 (Homo sapiens, UniProt P15121); assay: Inhibition of human recombinant AKR1B1 expressed in Escherichia coli BL21 cells using pyridine-3-aldehyde as substrate by spectrophotometry
[4] = biological target: T2, Aldo-keto reductase family 1 member B1
Description: Noncompetitive inhibition of human recombinant AKR1B1 using pyridine-3-aldehyde as substrate by Lineweaver-Burk plot analysis

| SMILES | IC50 [1] [nM] | IC50 [2] [nM] | IC50 [3] [nM] | Kii [4] [nM] | Kis [4] [nM] |
| --- | --- | --- | --- | --- | --- |
| O=C(O)Cn1c2c(c3ccccc31)CCN(Cc1ccc(Br)cc1F)C2=S |  | 680 | 4200 |  |  |
| O=C(O)Cn1c2c(c3ccccc31)CCN(c1ccccc1)C2=S |  | 21000 | 31000 |  |  |
| O=C(O)Cn1c2c(c3ccccc31)CCN(Cc1ccc(Br)cc1)C2=S | 14000 | 850 | 5900 |  |  |
| O=C(O)Cn1c2c(c3cc(F)ccc31)CCN(Cc1ccc(C(F)(F)F)cc1)C2=S |  | 1600 | 10000 |  |  |
| O=C(O)Cn1c2c(c3c(F)cc(F)cc31)CCN(CCc1ccccc1)C2=S |  | 400 | 1800 |  |  |
| O=C(O)Cn1c2c(c3c(Cl)cc(Cl)cc31)CCN(Cc1ccccc1)C2=S | 10000 | 6100 | 190 |  |  |
| O=C(O)Cn1c2c(c3ccc(Cl)cc31)CCN(Cc1ccccc1)C2=S | 21000 | 1400 | 240 |  |  |
| O=C(O)Cn1c2c(c3cc(F)ccc31)CCN(Cc1ccc(Br)cc1F)C2=S |  | 280 | 1700 |  |  |
| O=C(O)Cn1c2c(c3ccccc31)CCN(Cc1ccc(C(F)(F)F)cc1)C2=S |  | 3800 | 14000 |  |  |
| O=C(O)Cn1c2c(c3ccccc31)CCN(Cc1ccccc1)C2=S | 9500 | 5100 | 220 |  |  |
| O=C(O)Cn1c2c(c3c(F)cc(F)cc31)CCN(Cc1ccccc1)C2=S | 4700 | 480 | 1300 |  |  |

The remaining lines, values ahead:

| IC50 [1] [nM] | IC50 [2] [nM] | IC50 [3] [nM] | Kii [4] [nM] | Kis [4] [nM] | SMILES |
| --- | --- | --- | --- | --- | --- |
| 11000 | 1400 | 320 |  |  | O=C(O)Cn1c2c(c3cc(Br)ccc31)CCN(Cc1ccccc1)C2=S |
| 16000 | 3400 | 200 |  |  | CC(C)c1ccc2c(c1)c1c(n2CC(=O)O)C(=S)N(Cc2ccccc2)CC1 |
| 53000 | 40000 | 170 | 220 | 55 | O=C(O)Cn1c2c(c3cc(C(=O)O)ccc31)CCN(Cc1ccccc1)C2=S |
| 15000 | 1400 | 350 |  |  | O=C(O)Cn1c2c(c3cc(Cl)ccc31)CCN(Cc1ccccc1)C2=S |
| 12000 | 2900 | 150 | 180 | 79 | COc1ccc2c(c1)c1c(n2CC(=O)O)C(=S)N(Cc2ccccc2)CC1 |
| 11000 | 1400 | 190 |  |  | O=C(O)Cn1c2c(c3cc(I)ccc31)CCN(Cc1ccccc1)C2=S |
|  | 1900 | 200 |  |  | O=C(O)Cn1c2c(c3cc(O)ccc31)CCN(Cc1ccccc1)C2=S |
| 19000 | 3300 | 230 |  |  | O=C(O)Cn1c2c(c3cc(F)ccc31)CCN(Cc1ccccc1)C2=S |
